The text below walks through data of patent US11458144B1, “Methods for using 5-HMF analogs with increased solubility to inhibit or reverse RBC sickling” (King Abdulaziz University, priority 2021, dated 2022).

Where two headings read alike, the source gives them in different places.

Experiment [1] concerns the target T1, HbA (Homo sapiens, UniProt P68871+P69905).
T1 construct: time-dependent P50-shift of HbA in normal blood (20% hematocrit); endogenous in cells; host or cells: red blood cells in normal whole blood of adult donors (hematocrit 20%)
Description: Time-dependent Hb oxygen equilibrium study in normal whole blood. It is filed as cell-based. The settings on record: 2 mM, 20% hematocrit, at 3 hours. As to the method:
The time-dependent effect of the MMA compounds and positive control 5-HMF on Hb oxygen affinity was studied using normal blood following previous procedure.^[15] Briefly, normal blood samples (hematocrit 20%) were incubated with the compounds at 37° C. for 24 h. Aliquots were taken at various time points and incubated in IL 237 tonometers (Instrumentation Laboratories, Inc. Lexington, Mass.) for 10 minutes at 37° C., and allowed to equilibrate at oxygen tensions 6, 20, and 40 mmHg. The samples were then aspirated into an ABL 700 Automated Blood Gas Analyzer (Radiometer) to determine the pH, partial pressure of CO2 (pCO2), partial pressure of oxygen (pO2), and Hb oxygen saturation values (SO2). The measured values of pO2 (mmHg) and SO2 at each pO2 value were then subjected to a non-linear regression analysis using the program Scientist (Micromath, Salt Lake City, Utah) to estimate P50 as previously reported.^[28]
5-HMF has a short half-life and poor oral bioavailability due to this metabolic instability, which in part prevented its development for chronic use. Nonetheless, this metabolic instability could be advantageous for parenteral formulation for acute use. […] Briefly, blood samples (hematocrit 20%) were incubated with the compounds at 37° C. for 24 h, and aliquots were taken at the various time points and used to determine the PO2 and SO2 using ABL 800 Automated Blood Gas Analyzer (Radiometer), and to estimate P50 as previously reported.^[10]
The study confirmed the trend in the biological potencies observed with SS blood.

The target in experiment [2] is CYP2D6 (Homo sapiens, UniProt P10635). Description: In vitro CYP inhibition, pooled human liver microsomes. On the procedure:
(§1) The probe substrates include tacrine (CYP1A2), amodiaquine (CYP2C8), tolbutamide (CYP2C9), mephenytoin (CYP2C19), dextromethorphan (CYP2D6), midazolam (CYP3A4), testosterone (CYP3A4), and bupropion (CYP2B6). […] The assays were performed in duplicate in 96-well plates at 37° C. for 10-60 minutes. The reaction was terminated with addition of methanol, followed by incubation at 4° C. for 10 min and centrifuged at 4° C. for 10 min.
For orientation: Liver microsomes are vesicles of endoplasmic reticulum, rich in cytochrome P450 enzymes.

Experiment [3] deals with CYP2C9 (Homo sapiens, UniProt P11712). The description is as above. As to the method: as §1
CYP2C9, sequence (P11712 whole entry): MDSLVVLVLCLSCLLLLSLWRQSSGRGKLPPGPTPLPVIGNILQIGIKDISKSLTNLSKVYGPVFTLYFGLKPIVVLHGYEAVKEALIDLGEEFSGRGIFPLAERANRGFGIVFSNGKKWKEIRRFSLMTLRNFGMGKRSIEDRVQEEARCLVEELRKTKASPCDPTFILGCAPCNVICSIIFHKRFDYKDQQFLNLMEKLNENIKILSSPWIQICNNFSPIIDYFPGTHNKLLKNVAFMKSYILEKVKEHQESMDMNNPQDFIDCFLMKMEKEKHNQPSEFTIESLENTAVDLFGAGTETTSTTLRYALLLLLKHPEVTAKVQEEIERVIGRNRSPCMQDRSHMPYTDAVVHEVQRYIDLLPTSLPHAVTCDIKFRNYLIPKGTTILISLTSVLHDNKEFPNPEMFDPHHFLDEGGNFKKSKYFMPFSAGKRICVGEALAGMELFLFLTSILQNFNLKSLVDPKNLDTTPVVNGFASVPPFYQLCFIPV
Experiment [4] deals with CYP3A4 (Homo sapiens, UniProt P08684). The experiment is described as above. On the procedure:
as §1

Experiment [5] concerns the target CYP2C19 (Homo sapiens, UniProt P33261). The experiment is described as above. As to the method: as §1
Experiment [6] deals with T2, CYP2B6 (Homo sapiens, UniProt P20813).
T2 sequence (P20813 1-491): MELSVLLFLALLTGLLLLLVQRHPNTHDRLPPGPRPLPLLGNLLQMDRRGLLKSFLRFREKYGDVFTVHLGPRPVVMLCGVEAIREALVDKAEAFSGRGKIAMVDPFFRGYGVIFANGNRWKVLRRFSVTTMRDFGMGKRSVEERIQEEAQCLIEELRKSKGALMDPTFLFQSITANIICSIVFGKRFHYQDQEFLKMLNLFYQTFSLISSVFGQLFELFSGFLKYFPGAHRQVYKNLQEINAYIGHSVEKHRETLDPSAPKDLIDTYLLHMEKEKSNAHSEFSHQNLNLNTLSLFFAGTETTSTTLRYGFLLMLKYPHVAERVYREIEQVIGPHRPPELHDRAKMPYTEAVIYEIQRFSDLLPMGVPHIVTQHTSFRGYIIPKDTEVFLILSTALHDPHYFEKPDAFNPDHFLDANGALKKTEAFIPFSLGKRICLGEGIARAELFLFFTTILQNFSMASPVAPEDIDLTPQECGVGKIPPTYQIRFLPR
The description is as above. As to the method:
as §1

CYP3A4, sequence (P08684 whole entry): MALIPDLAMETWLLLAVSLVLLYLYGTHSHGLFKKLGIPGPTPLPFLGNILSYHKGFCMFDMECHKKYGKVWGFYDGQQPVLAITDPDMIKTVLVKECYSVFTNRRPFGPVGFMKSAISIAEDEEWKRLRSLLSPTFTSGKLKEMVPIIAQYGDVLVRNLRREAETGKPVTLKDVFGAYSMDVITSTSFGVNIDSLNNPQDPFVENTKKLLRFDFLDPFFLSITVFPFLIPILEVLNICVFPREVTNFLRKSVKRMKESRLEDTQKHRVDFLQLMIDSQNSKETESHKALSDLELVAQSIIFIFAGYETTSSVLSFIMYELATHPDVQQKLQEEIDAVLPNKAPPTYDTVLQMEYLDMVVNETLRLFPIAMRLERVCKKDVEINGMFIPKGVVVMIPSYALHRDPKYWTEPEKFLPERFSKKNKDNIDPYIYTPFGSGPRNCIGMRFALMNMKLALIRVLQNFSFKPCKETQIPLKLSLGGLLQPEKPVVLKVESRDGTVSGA
CYP2C19, sequence (P33261 whole entry): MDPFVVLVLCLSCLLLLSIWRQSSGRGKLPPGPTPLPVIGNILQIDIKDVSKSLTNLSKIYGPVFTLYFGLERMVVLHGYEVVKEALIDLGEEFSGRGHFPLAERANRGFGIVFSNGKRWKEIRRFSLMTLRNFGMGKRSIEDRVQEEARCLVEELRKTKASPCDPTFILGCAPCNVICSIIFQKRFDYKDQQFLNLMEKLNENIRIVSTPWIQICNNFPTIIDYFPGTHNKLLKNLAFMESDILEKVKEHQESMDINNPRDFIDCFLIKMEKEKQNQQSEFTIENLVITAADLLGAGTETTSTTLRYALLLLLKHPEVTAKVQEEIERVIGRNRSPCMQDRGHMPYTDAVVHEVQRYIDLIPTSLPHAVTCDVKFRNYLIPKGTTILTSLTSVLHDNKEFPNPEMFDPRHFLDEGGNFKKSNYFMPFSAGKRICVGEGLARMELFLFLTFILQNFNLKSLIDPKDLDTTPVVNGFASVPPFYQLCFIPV
CYP2D6, sequence (P10635 whole entry): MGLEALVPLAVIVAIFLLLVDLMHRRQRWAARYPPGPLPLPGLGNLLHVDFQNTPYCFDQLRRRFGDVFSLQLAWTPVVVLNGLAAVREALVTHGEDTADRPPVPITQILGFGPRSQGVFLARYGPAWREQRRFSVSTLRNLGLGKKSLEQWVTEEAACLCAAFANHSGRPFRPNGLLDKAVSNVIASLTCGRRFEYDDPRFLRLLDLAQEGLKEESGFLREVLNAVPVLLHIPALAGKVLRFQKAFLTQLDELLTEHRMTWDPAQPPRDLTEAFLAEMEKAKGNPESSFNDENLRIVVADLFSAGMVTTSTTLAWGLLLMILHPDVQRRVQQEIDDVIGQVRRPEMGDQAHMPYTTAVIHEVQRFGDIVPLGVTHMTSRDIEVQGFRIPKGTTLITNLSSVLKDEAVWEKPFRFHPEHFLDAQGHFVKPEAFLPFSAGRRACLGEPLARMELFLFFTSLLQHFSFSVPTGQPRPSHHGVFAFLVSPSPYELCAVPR
T1 sequence (P69905 2-142 limits assumed): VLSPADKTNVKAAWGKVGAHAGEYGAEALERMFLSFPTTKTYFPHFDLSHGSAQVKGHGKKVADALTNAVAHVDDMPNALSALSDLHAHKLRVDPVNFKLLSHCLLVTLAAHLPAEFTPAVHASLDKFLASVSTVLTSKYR
T1 sequence (P68871 2-147 limits assumed): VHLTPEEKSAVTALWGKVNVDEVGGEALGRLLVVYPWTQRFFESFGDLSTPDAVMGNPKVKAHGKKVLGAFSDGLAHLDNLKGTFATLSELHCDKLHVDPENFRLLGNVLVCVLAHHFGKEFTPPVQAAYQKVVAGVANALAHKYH

A word on the IC50: it is the point on the concentration scale where inhibition reaches its midpoint. With `O=Cc1ccc(CO)o1` [Compound 5-HMF, 5-hydroxymethylfurfural, reference compound], in experiment [1], the “%P50 shift” value came to 35%. In addition, the IC50 in experiment [2] is over 100 µM; in experiment [3], over 100 µM; in experiment [4], over 100 µM; in experiment [4] (human, microsomes, pH 7.4), over 100 µM; in experiment [5] it was over 100 µM; in experiment [6], over 100 µM.
